Data published in patent US11155517B2, “4-substituted phenylamine derivatives and their use to protect crops by fighting undesired phytopathogenic micoorganisms” (PI INDUSTRIES LTD., priority 2016, dated 2021).
Where a name gives a salt, the structure may show the parent alone.

What was measured:
Assay type in all cases: cell-based
Pyricularia oryzae = test: microbe, parasite or virus in culture; details: 168 h, read-out: % control compared to the untreated check (radial growth)
Rhizoctonia solani = Rhizoctonia solani (rice sheath blight/potato black scurf) in vitro test, radial growth on Potato Dextrose Agar; details: 168 h, 300 ppm, seven days, 25° C., read-out: % control compared to the untreated check (radial growth)
Alternaria solani = Alternaria solani (early blight of tomato/potato) in vitro test, radial growth on Potato Dextrose Agar; details: 168 h, 300 ppm, seven days, 25° C., read-out: % control compared to the untreated check (radial growth)
Botrytis cinerea = Botrytis cinerea (gray mold) in vitro test, radial growth on Potato Dextrose Agar; details: 168 h, 300 ppm, seven days, 22° C., read-out: % (control) compared to the untreated check (radial growth)

Structure (SMILES)	inhibition of growth at 300 ppm (Pyricularia oryzae)	inhibition of growth at 300 ppm (Rhizoctonia solani)	inhibition of growth at 300 ppm (Alternaria solani)	inhibition of growth at 300 ppm (Botrytis cinerea)
Cc1cc(N=CN2CCOCC2)c(Cl)cc1Cc1cccc(F)c1 [Compound 38, N-(2-chloro-4-(3-fluorobenzyl)-5-methylphenyl)-1-morpholinomethanimine]	> 75%			
CON(C)C=Nc1cc(C)c(Cc2ccccc2F)cc1C [Compound 61, N′-(4-(2-fluorobenzyl)-2,5-dimethylphenyl)-N-methoxy-N-methylformimidamide]	> 75%	> 80%	> 75%	
Cc1cc(N=CNC#N)c(C)cc1Cc1ccccc1Cl [Compound 65, N′-(4-(2-chlorobenzyl)-2,5-dimethylphenyl)-N-cyanoformimidamide]				> 80%
CCN(C)C=Nc1c(C)cc(C(F)(F)c2ccccc2)c(C)c1I [Compound 73, N′-(4-(difluoro(phenyl)methyl)-2-iodo-3,6-dimethylphenyl)-N-ethyl-N-methylformimidamide]	> 75%			
Cc1cc(N=CN(CC2CC2)C(C)C)c(C)cc1Cc1ccccc1F [Compound 88, N-(cyclopropylmethyl)-N′-(4-(2-fluorobenzyl)-2,5-dimethylphenyl)-N-isopropylformimidamide]	> 75%	> 80%	> 75%	> 80%
Cc1cc(N=CN(CC2CC2)C(C)C)c(C)cc1Cc1ccccc1Cl [Compound 89, N′-(4-(2-chlorobenzyl)-2,5-dimethylphenyl)-N-(cyclopropylmethyl)-N-isopropylformimidamide]	> 75%	> 80%	> 75%	> 80%
CCN(C)C=Nc1cc(C)c(Cc2cccc(F)c2Cl)cc1Cl [Compound 125, N′-(2-chloro-4-(2-chloro-3-fluorobenzyl)-5-methylphenyl)-N-ethyl-N-methylformimidamide]	> 75%		> 75%	
CCN(C)C=Nc1cc(C)c(Cc2cc(C(F)(F)F)cc(Cl)c2F)cc1Cl [Compound 126, N′-(2-chloro-4-(3-chloro-2-fluoro-5-(trifluoromethyl)benzyl)-5-methylphenyl)-N-ethyl-N-methylformimidamide]	> 75%		> 75%	
CCN(C)C=Nc1cc(Cl)c(Cc2cccc(C)c2)cc1Cl [Compound 141, N′-(2,5-dichloro-4-(3-methylbenzyl)phenyl)-N-ethyl-N-methylformimidamide]	> 75%	> 80%	> 75%	> 80%
CCN(C)C=Nc1cc(Cl)c(Cc2ccc(C)cc2)cc1Cl [Compound 147, N′-(2,5-dichloro-4-(4-methylbenzyl)phenyl)-N-ethyl-N-methylformimidamide]		> 80%	> 75%	
CCN(C)C=Nc1cc(Cl)c(Cc2ccccc2Cl)cc1Cl [Compound 150, N′-(2,5-dichloro-4-(2-chlorobenzyl)phenyl)-N-ethyl-N-methylformimidamide]	> 75%		> 75%	
CCN(C)C=Nc1cc(Cl)c(Cc2ccccc2C)cc1Cl [Compound 151, N′-(2,5-dichloro-4-(2-methylbenzyl)phenyl)-N-ethyl-N-methylformimidamide]	> 75%	> 80%	> 75%	> 80%
CCN(C)C=Nc1cc(C)c(C(C#N)c2ccc(C(F)(F)F)cc2)cc1Cl (stereo not shown) [Compound 187, N′-(2-chloro-4-(cyano(4-(trifluoromethyl)phenyl)methyl)-5-methylphenyl)-N-ethyl-N-methylformimidamide]				> 80%
CCN(C)C=Nc1cc(C)c(C(C#N)c2cccc(C(F)(F)F)c2)cc1Cl (stereo not shown) [Compound 188, N′-(2-chloro-4-(cyano(3-(trifluoromethyl)phenyl)methyl)-5-methylphenyl)-N-ethyl-N-methylformimidamide]	> 75%			> 80%
CCN(C)C=Nc1cc(C)c(C(C#N)c2ccc(F)c(Cl)c2)cc1Cl (stereo not shown) [Compound 190, N′-(2-chloro-4-((3-chloro-4-fluorophenyl)(cyano)methyl)-5-methylphenyl)-N-ethyl-N-methylformimidamide]	> 75%			> 80%
CCN(C)C=Nc1cc(C)c(C(C#N)c2ccc(C)cc2)cc1Cl (stereo not shown) [Compound 191, N′-(2-chloro-4-(cyano(p-tolyl)methyl)-5-methylphenyl)-N-ethyl-N-methylformimidamide]		> 80%		> 80%
CCN(C)C=Nc1cc(C)c(C(C#N)c2ccc(Cl)cc2)cc1Cl (stereo not shown) [Compound 193, N′-(2-chloro-4-((4-chlorophenyl)(cyano)methyl)-5-methylphenyl)-N-ethyl-N-methylformimidamide]	> 75%	> 80%		> 80%

Structure (SMILES)	inhibition of growth at 300 ppm (Pyricularia oryzae)	inhibition of growth at 300 ppm (Rhizoctonia solani)	inhibition of growth at 300 ppm (Alternaria solani)	inhibition of growth at 300 ppm (Botrytis cinerea)
CCN(C)C=Nc1cc(C)c(C(C#N)c2cccc(F)c2)cc1Cl (stereo not shown) [Compound 194, N′-(2-chloro-4-(cyano(3-fluorophenyl)methyl)-5-methylphenyl)-N-ethyl-N-methylformimidamide]	> 75%			
CCN(C)C=Nc1cc(C)c(Cc2ccccn2)cc1C [Compound 202, N′-(2,5-dimethyl-4-(pyridin-2-ylmethyl)phenyl)-N-ethyl-N-methylformimidamide]	> 75%		> 75%	
COC=Nc1c(C)cc(Cc2ccc(Br)cc2)c(C)c1Br [Compound 217, methyl N-(2-bromo-4-(4-bromobenzyl)-3,6-dimethylphenyl)formimidate]				> 80%
CCN(C)C=Nc1cc(C)c(Cc2cccc(Cl)c2)cc1S(C)(=O)=O [Compound 218, N′-(4-(3-chlorobenzyl)-5-methyl-2-(methylsulfonyl)phenyl)-N-ethyl-N-methylformimidamide]			> 75%	
CCN(C)C=Nc1c(C)cc(Cc2ccccc2C)c(C)c1Br [Compound 219, N′-(2-bromo-3,6-dimethyl-4-(2-methylbenzyl)phenyl)-N-ethyl-N-methylformimidamide]	> 75%		> 75%	> 80%
CCN(C)C=Nc1cc(C(F)(F)F)c(Cc2ccccc2Cl)cc1F [Compound 226, N′-(4-(2-chlorobenzyl)-2-fluoro-5-(trifluoromethyl)phenyl)-N-ethyl-N-methylformimidamide]	> 75%	> 80%	> 75%	
CCN(C)C=Nc1cc(C(F)(F)F)c(Cc2ccccc2F)cc1F [Compound 227, N-ethyl-N′-(2-fluoro-4-(2-fluorobenzyl)-5-(trifluoromethyl)phenyl)-N-methylformimidamide]	> 75%	> 80%	> 75%	
CCN(C)C=Nc1cc(C(F)(F)F)c(Cc2cccc(C)c2)cc1F [Compound 231, N-ethyl-N′-(2-fluoro-4-(3-methylbenzyl)-5-(trifluoromethyl)phenyl)-N-methylformimidamide]	> 75%	> 80%	> 75%	
CCN(C)C=Nc1cc(C(F)(F)F)c(Cc2cccc(OC(F)(F)F)c2)cc1F [Compound 233, N-ethyl-N′-(2-fluoro-4-(3-(trifluoromethoxy)benzyl)-5-(trifluoromethyl)phenyl)-N-methylformimidamide]	> 75%		> 75%	> 80%
CCN(C)C=Nc1cc(C)c(Cc2ccccc2C)cc1S(C)(=O)=O [Compound 234, N-ethyl-N-methyl-N′-(5-methyl-4-(2-methylbenzyl)-2-(methylsulfonyl)phenyl)formimidamide]	> 75%		> 75%	> 80%
CCN(C)C=Nc1cc(C)c(Cc2ccc(C)cc2)cc1S(C)(=O)=O [Compound 235, N-ethyl-N-methyl-N′-(5-methyl-4-(4-methylbenzyl)-2-(methylsulfonyl)phenyl)formimidamide]				> 80%
CCN(C)C=Nc1cc(Cl)c(C(C(=O)OC)c2cccc(Cl)c2)cc1C (stereo not shown) [Compound 237, methyl 2-(2-chloro-4-(((ethyl(methyl)amino)methylene)amino)-5-methylphenyl)-2-(3-chlorophenyl)acetate]	> 75%		> 75%	
C=C(c1ccc(Br)cc1)c1cc(C)c(N=CN(C)CC)cc1Cl [Compound 238, N′-(4-(1-(4-bromophenyl)vinyl)-5-chloro-2-methylphenyl)-N-ethyl-N-methylformimidamide]	> 75%		> 75%	> 80%
CCN(C)C=Nc1cc(F)c(Cc2ccccc2F)cc1F [Compound 242, N′-(2,5-difluoro-4-(2-fluorobenzyl)phenyl)-N-ethyl-N-methylformimidamide]	> 75%		> 75%	> 80%
CCN(C)C=Nc1cc(C(F)(F)F)c(Cc2cccc(F)c2)cc1C1CC1 [Compound 266, N′-(2-cyclopropyl-4-(3-fluorobenzyl)-5-(trifluoromethyl)phenyl)-N-ethyl-N-methylformimidamide]	> 75%		> 75%	> 80%
CCN(C)C=Nc1cc(C)c(C(C#N)c2cccc(C(F)(F)F)c2)cc1Cl (stereo not shown) [Compound 272, N′-(2-chloro-4-(cyano(3-(trifluoromethyl)phenyl)methyl)-5-methylphenyl)-N-ethyl-N-methylformimidamide hydrochloride]			> 75%	
